This note sets out measurements from US7531575B2, “Method of modulating cellular activity and agents useful for same” (Eberhard-Karls-Universität Tübingin, priority 2002, dated 2009).

SMILES strings stand for the structures.

Format in all cases: cell-based, murine
Experiment [1] concerns iNOS. The experiment is described as follows: iNOS protein immunoblot, IFN-γ-stimulated N9 microglia. The conditions noted are these: N9 cells, IFN-γ 200 u ml, 24 h, tranilast 300 μM. The protocol:
Tranilast was a generous gift of Kissei Pharmaceuticals (Nagano, Japan). Murine recombinant IFN-γ was purchased from Boehringer (Mannheim, Germany). Dexamethasone (DEX) was obtained from Sigma (Deisenhofen, Germany). N9 murine microglial cells were a kind gift from P. Ricciardi-Castagnoli (Milano, Italy) (Righi, M., Mori, L., De Libero, G., Sironi, M., Biondi, A., Mantovani, A., Donini, S. D. and Ricciardi-Castagnoli, P. Eur J Immunol 19(8):1443-1448, 1989). The cells were cultured in Dulbecco's modified Eagle's medium (DMEM) supplemented with 10% foetal calf serum (FCS), 2 mM glutamine and penicillin ([…])/streptomycin (100 μg ml), and maintained at 37° C. in an atmosphere of 5% CO2. Viability was assessed by crystal violet staining.
For the preparation of whole cell lysates, the cells were rinsed in phosphate-buffered saline (PBS), harvested, centrifuged at 1200×g, lysed in 0.1 M TRIS-HCl (pH 7.2) containing 0.1% NP40, 0.1 mM EDTA and 5 μg ml PMSF for 40 min on ice, and centrifuged at 10,000×g for 10 min. Protein concentration was determined using Biorad reagents with photometric analysis. Proteins (20 μg lane) were separated by 10-12% SDS-PAGE and electroblotted on nitrocellulose. qual protein loading was controlled by Ponceau S staining. […]
On the technique in general: Immunoblotting shows a protein as a band on a membrane.

The test system of experiment [2] is iNOS mRNA. The experiment is described as follows: iNOS mRNA Northern blot, LPS-stimulated N9 microglia. The conditions noted are these: N9 cells, LPS 10 μg/mL, TNL 300 μM pretreatment 1 hr. An excerpt: (§1) TNL was a generous gift of Kissei Pharmaceuticals, LPC (Escherichia coli, 0127:BS), phorbol 12-myristate 13-acetate (PMA) and dexamethasone (DEX) were obtained from Sigma, BAY 11-7082 (BAY), NF-κB SN50 inhibitory peptide (SN50), GF 109203X (GFX) and rottlerin (ROT) were purchased from Biomol. PD098059 (PD) was obtained from Calbiochem. Purified murine interferon-γ (IFN-γ) was purchased from Roche Diagnostics. N9 murine microglial cells were a kind gift from P. Ricciardi-Castagnoli (Righi, M. et al. 1989 supra). Cells were cultured in Dulbecco's modified Eagle's medium (DMEM) supplemented with 10% fetal calf serum (FCS), 2 mM glutamine, penicillin (100 unit/mL) and streptomycin (100 μg/mL) and maintained at 37° in an atmosphere of 5% CO2. Viability was assessed by crystal violet staining.
RNA was isolated using the RNeasy™ kit (Qiagen). Total RNA (10 μg) was separated on 1.2% agarose gels and blotted onto nylon membranes (Amersham). The filters were hybridized according to standard procedures with a ^32P-labeled murine cDNA probe for iNOS. For the generation of the iNOS probe, N9 cells were stimulated with IFN-γ (200 unit/mL) for 24 hr. […]

Experiment [3] has as its system iNOS. The experiment is described as follows: iNOS protein immunoblot, LPS-stimulated N9 microglia. Conditions: TNL 300 μM.
From the text: as §1
For the preparation of whole cell lysates, the cells were lysed in 0.1 M Tris-HCl (pH 7.2) containing 0.1% NP40, 0.1 mM EDTA and 5 μg/mL phenylmethylsulphonyl fluoride. Twenty micrograms protein was separated by 10-12% SDS-PAGE and electroblotted on nitrocellulose membrane. Equal loading was controlled by Ponceau S staining. Immunodetection was performed using the following antibodies: anti-iNOS rabbit polyclonal antibody (1:1000, Cayman), antiphospho-IκBα mouse monoclonal antibody (1:1000), anti-PKCδ mouse monoclonal antibody (1:2000), antiphospho-MARCKS rabbit polyclonal antibody (1:1000), antiphospho-ERK-1/2, antiphospho-AKT, antiphospho-p38 mouse monoclonal antibodies (1:2000), anti-ERK-1/2, anti-AKT mouse monoclonal antibodies (1:500, all from Signal Transduction Laboratories). Bands were visualized using horseradish peroxidase-conjugated anti-rabbit IgG (1:4000 SantaCruz) or anti-mouse IgG (1:4000, Amersham).

Experiment [4] deals with inhibitory-κB (I-κB). Kind of experiment: phospho-IκBα immunoblot, LPS-stimulated N9 microglia. The conditions noted are these: N9 cells, 1 hr, TNL pre-incubation 1 hr.
From the text: as §1
(§2) For the preparation of whole cell lysates, the cells were lysed in 0.1 M Tris-HCl (pH 7.2) containing 0.1% NP40, 0.1 mM EDTA and 5 μg/mL phenylmethylsulphonyl fluoride. Twenty micrograms protein was separated by 10-12% SDS-PAGE and electroblotted on nitrocellulose membrane. Equal loading was controlled by Ponceau S staining. […]

Experiment [5] has as its system ERK-2. Kind of experiment: phospho-ERK-1/2 immunoblot, LPS-stimulated N9 microglia: ERK-2. Conditions: N9 cells, LPS 10 μg/mL 10 min.
From the text: as §1, §2

Experiment [6] deals with ERK-1. The experiment is described as follows: phospho-ERK-1/2 immunoblot, LPS-stimulated N9 microglia: ERK-1. Conditions: N9 cells, LPS 10 μg/mL 10 min, TNL pre-incubation 1 hr.
From the text: as §1, §2

For experiment [7], the system named is p38 MAPK. Kind of experiment: phospho-p38 immunoblot, LPS-stimulated N9 microglia. The conditions noted are these: N9 cells, LPS 10 μg/mL 10 min, TNL pre-incubation 1 hr.
From the text: as §1, §2

The subject of experiment [8] is MARCKS. Kind of experiment: phospho-MARCKS immunoblot in N9 microglia. The conditions noted are these: N9 cells, co-exposed to TNL (pre-incubation 1 hr).
From the text: as §1, §2

As for `COc1ccc(/C=C/C(=O)Nc2ccccc2C(=O)O)cc1OC` [tranilast, 2-[[3-(3,4-dimethoxyphenyl)-1-oxo-2-propenyl]amino]benzoic acid], in experiment [1], the “IFN-γ-induced iNOS protein expression” value was “greatly suppressed”. The “LPS induction of iNOS mRNA” value in experiment [2] (4 and 8 hr) is listed as “unaffected”; in experiment [2] (16 hr) it was “no further increase”. Also, in experiment [3] (N9 cells, LPS 10 μg/mL), the “accumulation of iNOS protein after LPS” value is listed as “suppressed”. For the same compound, the “PMA superinduction of iNOS protein in LPS-stimulated cells” value in experiment [3] (PMA 100 nM 15 min, LPS 10 μg/mL 24 hr) was “abolished”. Besides, the “LPS-mediated phosphorylation of I-κB” value in experiment [4] is “did not suppress”. The “reduction of phospho-ERK-2 (densitometry)” value in experiment [5] (300 μM TNL) is given as 80%. Also, the “ERK-2 phosphorylation after LPS” value in experiment [5] (TNL pre-incubation 1 hr, concentration series) is given as “concentration-dependent inhibition”. Moreover, the “phospho-ERK-1 protein level after LPS” value in experiment [6] was “remained unchanged”. The “cellular phospho-p38 levels after LPS” value in experiment [7] is reported as “did not alter”. In addition, in experiment [8], the MARCKS phosphorylation result is “inhibited”.
